The results in this text go back to patent US20220372031A1, “NOVEL TRICYCLIC AROMATIC HETEROCYCLIC COMPOUND, PREPARATION METHOD THEREFOR, PHARMACEUTICAL COMPOSITION AND APPLICATION THEREOF” (SHANGHAI LONGWOOD BIOPHARMACEUTICALS CO., LTD., priority 2019, published 2022).

SMILES strings stand for the structures.

In the assay the target is T1, PD-1/PD-L1 (Homo sapiens, UniProt Q9NZQ7).
T1 construct: Recombinant human PD-L1 protein (19-238) with a His-tagged at the C-terminus; purchased AcroBiosystems PD1-H5229 (PD-L1); PD1-H5257 (PD-1)
T1 sequence (Q9NZQ7 19-238): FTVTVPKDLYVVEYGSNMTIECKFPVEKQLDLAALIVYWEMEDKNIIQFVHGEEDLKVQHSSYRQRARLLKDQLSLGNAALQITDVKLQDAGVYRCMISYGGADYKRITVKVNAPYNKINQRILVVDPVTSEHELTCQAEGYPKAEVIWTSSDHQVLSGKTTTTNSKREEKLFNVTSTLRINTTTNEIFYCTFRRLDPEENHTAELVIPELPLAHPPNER
The experiment in a line: PD-1/PD-L1 homogeneous time-resolved fluorescence (HTRF) binding assay. The following applies: PD-1/PD-L1 HTRF binding, ~3 nM PD1, 10 nM PD-L1, 25° C., PBS pH 7.4. Here is the method:
Assays were performed in standard black 384-well polystyrene plates and a final volume was 20 μL. The inhibitor was first serially diluted with DMSO and added to the wells of the plate, followed by the addition of other reaction components. The final concentration of DMSO in the assay was 1%. Assays were performed at 25° C. in PBS buffer (pH 7.4) containing 0.05% Tween-20 and 0.1% BSA. Recombinant human PD-L1 protein (19-238) with a His-tagged at the C-terminus was purchased from AcroBiosystems (PD1-H5229). Recombinant human PD-1 protein (25-167) with an Fc tag at the C-terminus was also purchased from AcroBiosystems (PD1-H5257). The PD-L1 and PD-1 proteins were diluted in assay buffer and then […] of the solution was extracted and added to the wells of the plate. Plates were centrifuged and proteins and inhibitors were preincubated for 40 minutes. After incubation, 0.1 μl of HTRF detection buffer containing europium […] labeled anti-human IgG (PerkinElmer-AD0212), Fc-specific and anti-His SureLight®-Allophycocyanin (APC, PerkinElmer-AD0059H) conjugated antibodies was added. After centrifugation, the plates were incubated at 25° C. for 60 minutes. Data was read in a PHERAstar FS plate reader (665 nm/620 nm ratio). Final concentrations in the assay were ˜3 nM PD1, 10 nM PD-L1, 1 nM europium anti-human IgG, and 20 nM anti-His-allophycocyanin. Activity data were fitted using GraphPad Prism 5_0 software to derive IC50 values for inhibitors.
A general note: TR-FRET usually uses a lanthanide donor and a delayed reading to cut background.
With `Cc1c(Nc2nccc3cc(CN4CC[C@@H](O)C4)cnc23)cccc1-c1cccc(-c2cc3cc4c(c([N+](=O)[O-])c3o2)CCCC4N2CC(C(=O)O)C2)c1C` (some centres unmarked) [Compound 001], the half-inhibitory concentration (IC50) was no more than 10 nM.
Compound `Cc1c(Nc2nccc3cc(CN4CC[C@@H](O)C4)cnc23)cccc1-c1cccc(-c2cc3cc4c(c(C#N)c3o2)CCCC4N2CC(C(=O)O)C2)c1C` (some centres unmarked) [Compound 002] registered an IC50 of no more than 10 nM.
In turn, `COc1nc(-c2cccc(-c3cccc(-c4cc5cc6c(c(C#N)c5o4)CCC6N4CC[C@@H](C(=O)O)C4)c3C)c2C)cnc1CN1CC[C@@H](O)C1` (some centres unmarked) [Compound 003] had an IC50 of no more than 10 nM.
`Cc1c(Nc2nccc3cc(CN4CC[C@@H](O)C4)cnc23)cccc1-c1cccc(-c2nc3cc4c(c(C#N)c3o2)CCC4N2CC[C@@H](C(=O)O)C2)c1C` (some centres unmarked) [Compound 004]: the IC50 is no more than 10 nM.
As for `N#Cc1c2c(cc3nc(-c4cccc(-c5cccc(Nc6nccc7cc(CN8CC[C@@H](O)C8)cnc67)c5Cl)c4Cl)oc13)C(N1CC[C@@H](C(=O)O)C1)CC2` (some centres unmarked) [Compound 005], the figure is no more than 10 nM; as for `Cc1c(Nc2nccc3cc(CN4CC[C@@H](O)C4)cnc23)cccc1-c1cccc(-c2nc3cc4c(c(C#N)c3o2)CC[C@@H]4N2CC[C@@H](C(=O)O)C2)c1C` [Compound 006], no more than 10 nM; as for `Cc1c(Nc2nccc3cc(CN4CC[C@@H](O)C4)cnc23)cccc1-c1cccc(-c2nc3cc4c(c(C#N)c3o2)CC[C@H]4N2CC[C@@H](C(=O)O)C2)c1C` [Compound 007], no more than 10 nM.
Turning to `COc1nc(-c2cccc(-c3cccc(-c4nc5cc6c(c(C#N)c5o4)CCC6N4CC[C@@H](C(=O)O)C4)c3C)c2C)ccc1CN1CC[C@@H](O)C1` (some centres unmarked) [Compound 008], the concentration for half-maximal inhibition (IC50) is no more than 10 nM.
Compound `Cc1c(Nc2nccc3cc(CN4CC[C@@H](O)C4)cnc23)cccc1-c1cccc(-c2nc3cc4c(c(C#N)c3o2)CCC4N2CC[C@@H](C(=O)NS(=O)(=O)C3CC3)C2)c1C` (some centres unmarked) [Compound 009] displayed an IC50 of no more than 10 nM.
The figure for `Cc1c(Nc2nccc3cc(CN4CC[C@@H](O)C4)cnc23)cccc1-c1cccc(-c2nc3cc4c(c(C#N)c3o2)CCC4N2CC[C@@H](C(N)=O)C2)c1C` (some centres unmarked) [Compound 010] is no more than 10 nM.
As for `N#Cc1c2c(cc3nc(-c4cccc(-c5cccc(Nc6nccc7cc(CN8CC[C@@H](O)C8)cnc67)c5Cl)c4Cl)oc13)[C@@H](NCCC(=O)O)CC2` [Compound 011], the IC50 is no more than 10 nM.
Compound `N#Cc1c2c(cc3nc(-c4cccc(-c5cccc(Nc6nccc7cc(CN8CC[C@@H](O)C8)cnc67)c5Cl)c4Cl)oc13)[C@@H](NCC(=O)O)CC2` [Compound 012] came in with an IC50 of no more than 10 nM.
Consider `CN(CC(=O)O)[C@H]1CCc2c1cc1nc(-c3cccc(-c4cccc(Nc5nccc6cc(CN7CC[C@@H](O)C7)cnc56)c4Cl)c3Cl)oc1c2C#N` [Compound 013], for which the IC50 was no more than 10 nM.
The figure for `Cc1c(Nc2nc(N)nc3cc(CN4CC[C@@H](O)C4)cnc23)cccc1-c1cccc(-c2nc3cc4c(c(C#N)c3o2)CC[C@H]4N2CC[C@@H](C(=O)O)C2)c1C` [Compound 015] is no more than 10 nM; for `Cc1c(Nc2nc(C(F)F)nc3cc(CN4CC[C@@H](O)C4)cnc23)cccc1-c1cccc(-c2nc3cc4c(c(C#N)c3o2)CC[C@H]4N2CC[C@@H](C(=O)O)C2)c1C` [Compound 016] it is no more than 10 nM; for `Cc1c(Nc2nccc3cc(CN4CC[C@@H](O)C4)cnc23)cccc1-c1cccc(-c2cc3cc4c(c(C#N)c3o2)CCCC4N2CC[C@@H](C(=O)O)C2)c1C` (some centres unmarked) [Compound 017] it is no more than 10 nM.
As to `Cc1c(Nc2nccc3cc(CN4CC[C@@H](O)C4)cnc23)cccc1-c1cccc(-c2cc3cc4c(c(C#N)c3o2)CCC4N2CC[C@@H](C(=O)O)C2)c1C` (some centres unmarked) [Compound 018], the IC50 is no more than 10 nM.
`Cc1c(Nc2nccc3cc(CN4CC[C@@H](O)C4)cnc23)cccc1-c1cccc(-c2cc3cc4c(c(C#N)c3o2)CCCC4N2CC[C@@H](O)C2)c1C` (some centres unmarked) [Compound 019] showed an IC50 of no more than 10 nM.
As for `Cc1c(Nc2nccc3cc(CN4CC[C@@H](O)C4)cnc23)cccc1-c1cccc(-c2cc3cc4c(c(C#N)c3o2)CCC4N2CC[C@@H](O)C2)c1C` (some centres unmarked) [Compound 020], the figure is no more than 10 nM; as for `N#Cc1c2c(cc3cc(-c4cccc(-c5cccc(Nc6nccc7cc(CN8CC[C@@H](O)C8)cnc67)c5Cl)c4Cl)oc13)C(N1CC[C@@H](C(=O)O)C1)CC2` (some centres unmarked) [Compound 021], no more than 10 nM; as for `Cc1c(Nc2nccc3cc(CN4CC[C@@H](O)C4)cnc23)cccc1-c1cccc(-c2cc3cc4c(c(C#N)c3o2)CC[C@@H]4N)c1C` [Compound 022], no more than 10 nM.
As for `Cc1c(Nc2nccc3cc(CN4CC[C@@H](O)C4)cnc23)cccc1-c1cccc(-c2cc3cc4c(c(C#N)c3o2)CCCC4NCCO)c1C` (some centres unmarked) [Compound 023], the figure is no more than 10 nM.
Compound `Cc1c(Nc2nccc3cc(CN4CC[C@@H](O)C4)cnc23)cccc1-c1cccc(-c2nc3cc4c(c(C#N)c3o2)CCC4N2CC[C@@H](C(=O)O)C2)c1Cl` (some centres unmarked) [Compound 026] gave an IC50 of no more than 10 nM.
As for `Cc1c(-c2nc3cc4c(c(C#N)c3o2)CCC4N2CC[C@@H](C(=O)O)C2)cccc1-c1cccc(Nc2nccc3cc(CN4CC[C@@H](O)C4)cnc23)c1Cl` (some centres unmarked) [Compound 027], the figure is no more than 10 nM.
As for `Cc1c(Nc2nccc3cc(CN4CC[C@@H](O)C4)cnc23)cccc1-c1cccc(-c2nc3cc4c(c(C#N)c3o2)CCC4NCCC(=O)O)c1C` (some centres unmarked) [Compound 028], the figure is no more than 10 nM; as for `N#Cc1c2c(cc3nc(-c4cccc(-c5cccc(Nc6nccc7cc(CN8CC[C@@H](O)C8)cnc67)c5Cl)c4Cl)oc13)[C@@H](N1CC[C@@H](C(=O)O)C1)CC2` [Compound 029], no more than 10 nM.
The figure for `N#Cc1c2c(cc3nc(-c4cccc(-c5cccc(Nc6nccc7cc(CN8CC[C@@H](O)C8)cnc67)c5Cl)c4Cl)oc13)[C@H](N1CC[C@@H](C(=O)O)C1)CC2` [Compound 030] is no more than 10 nM; for `N#Cc1c2c(cc3nc(-c4cccc(-c5cccc(Nc6nccc7cc(CN8CC[C@@H](O)C8)cnc67)c5Cl)c4Cl)oc13)[C@H](NCCC(=O)O)CC2` [Compound 031] it is no more than 10 nM.
`Cc1c(Nc2nccc3cc(CN4CC[C@@H](O)C4)cnc23)cccc1-c1cccc(-c2nc3cc4c(c(C#N)c3o2)CC[C@H]4N2CC[C@@H](C(=O)NS(=O)(=O)C3CC3)C2)c1C` [Compound 032] had an IC50 of no more than 10 nM.
The compound `COc1nc(-c2cccc(-c3cccc(-c4nc5cc6c(c(C#N)c5o4)CC[C@H]6N4CC[C@@H](C(=O)NS(=O)(=O)C5CC5)C4)c3C)c2C)ccc1CN1CC[C@@H](O)C1` [Compound 034] yielded an IC50 of no more than 10 nM.
`COc1nc(-c2cccc(-c3cccc(-c4nc5cc6c(c(C#N)c5o4)CC[C@H]6N4CC[C@@H](C(=O)NS(=O)(=O)C5CC5)C4)c3Cl)c2Cl)ccc1CN1CC[C@@H](O)C1` [Compound 035] yielded an IC50 of no more than 10 nM.
`COc1nc(-c2cccc(-c3cccc(-c4nc5cc6c(c(C#N)c5o4)CC[C@H]6N4CC[C@@H](C(=O)NS(=O)(=O)C5CC5)C4)c3C)c2C)cnc1CN1CC[C@@H](O)C1` [Compound 036] gave a concentration for half-maximal inhibition (IC50) of no more than 10 nM.
The figure for `COc1nc(-c2cccc(-c3cccc(-c4nc5cc6c(c(C#N)c5o4)CC[C@H]6N4CC[C@@H](C(=O)NS(=O)(=O)C5CC5)C4)c3Cl)c2Cl)cnc1CN1CC[C@@H](O)C1` [Compound 037] is no more than 10 nM.
As for `COc1nc(-c2cccc(-c3cccc(-c4nc5cc6c(c(C#N)c5o4)CC[C@@H]6NCCC(=O)O)c3Cl)c2Cl)cnc1CN1CC[C@@H](O)C1` [Compound 038], the figure is no more than 10 nM; as for `COc1nc(-c2cccc(-c3cccc(-c4nc5cc6c(c(C#N)c5o4)CC[C@H]6NCCC(=O)O)c3Cl)c2Cl)cnc1CN1CC[C@@H](O)C1` [Compound 039], no more than 10 nM; as for `Cc1c(Nc2nccc3cc(CN4CC[C@@H](O)C4)cnc23)cccc1-c1cccc(-c2nc3cc4c(c(C#N)c3o2)CC[C@H]4N2CC[C@@H](C(=O)O)C2)c1Cl` [Compound 040], no more than 10 nM.
As for `N#Cc1c2c(cc3nc(-c4cccc(-c5cccc(Nc6nccc7cc(CN8CC[C@@H](O)C8)cnc67)c5Cl)c4Cl)oc13)[C@@H](NCC(=O)NS(=O)(=O)C1CC1)CC2` [Compound 042], the figure is no more than 10 nM; as for `CCOC(=O)CN[C@H]1CCc2c1cc1nc(-c3cccc(-c4cccc(Nc5nccc6cc(CN7CC[C@@H](O)C7)cnc56)c4Cl)c3Cl)oc1c2C#N` [Compound 043], 10 to 100 nM.
In turn, `Cc1c(-c2nc3cc4c(c(C#N)c3o2)CC[C@H]4N2CC[C@@H](C(=O)O)C2)cccc1-c1cccc(Nc2nc(C(F)F)nc3cc(CN4CC[C@@H](O)C4)cnc23)c1Cl` [Compound 081] showed an IC50 of no more than 10 nM.
Compound `Cc1c(Nc2nc(C(F)F)nc3cc(CN4CC[C@@H](O)C4)cnc23)cccc1-c1cccc(-c2nc3cc4c(c(C#N)c3o2)CC[C@H]4N2CC[C@@H](C(=O)O)C2)c1Cl` [Compound 082] came in with an IC50 of no more than 10 nM.
As for `N#Cc1c2c(cc3nc(-c4cccc(-c5cccc(Nc6nc(C(F)F)nc7cc(CN8CC[C@@H](O)C8)cnc67)c5Cl)c4Cl)oc13)[C@H](N1CC[C@@H](C(=O)O)C1)CC2` [Compound 083], the figure is no more than 10 nM.

A word on the IC50: it is the concentration needed to halve the response being measured.
